We go through 2 compounds from US20240376097A1, “BCL-2 Inhibitor” (BeiGene Ltd., priority 2020, published 2024).

The test system of assay [1] is RS4;11 (BCL-2 dependent acute lymphoblastic leukemia cell line). As to the kind of experiment: RS4;11 Cell Proliferation Assay. The conditions noted are these: read-out: Cellular proliferation assay (IC50, nM) RS4. In kind it is cell-based. The method, then:
Biological Example: RS4;11 Cell Proliferation Assay
The BCL-2 dependent acute lymphoblastic leukemia (ALL) cell line, RS4;11, was used to study the cellular potency of BCL-2 inhibitors. The cells (ATCC, CRL-1873) were cultured in RPMI-1640 complete medium (RPMI-1640 medium, HEPES (Gibco, 22400-105) supplemented with 10% fetal bovine serum (FBS) (Gibco, 10099-1441), 100 unit/ml penicillin and 100 μg/ml streptomycin (Gibco, 15140122)) and maintained in a humidified chamber at 37° C. containing 5% CO2. Each compound was serially diluted with 1 μM as the maximum concentration. To test the apoptotic effect of the compounds, the cells were seeded at 50,000 in 180 μl per well in 96-well plates and treated with 10-point dilution series of each compound for 48 hrs at 37° C. Cell viability was assessed after the treatment using CellTiter-GLO luminescent assay (Promega) according to the manufacturer's recommendations. Briefly, 30 μl of CellTiter-GLO reagent was added into 200 μl of cell culture. Mixture was agitated on an orbital shaker for 5 min to ensure cell lysis followed by 7 min incubation at room temperature to allow development and stabilization of luminescent signals, which corresponded to the quantity of ATP and thus the quantity of metabolically active cells. Luminescent signals were measured using PHERAstar FS reader (BMG). Mean IC50 values were determined with GraphPad Prism software.

The target of assay [2] is Recombinant human Bcl-2 protein (Homo sapiens (Human), UniProt P10415). The experiment in a line: Bcl-2 TR-FRET Assay. The class given is binding. As to conditions: Bcl-2 wild type, TR-FRET; read-out: Biochemical assay (IC50, nM) Bcl-2 WT. The method, boiled down:
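In pH 7.5 phosphate buffer containing NaCl, EDTA, Tween-20 and BSA, 0.05 nM Bcl-2 saw serially diluted compound for 0.5 h before 0.5 nM FITC-Bak peptide was added. Signal ratio at 520/490 nm after 1 h yielded IC50.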

Assay [3] relates to recombinant human Bcl-2-G101V protein. As to the kind of experiment: Bcl-2-G101V TR-FRET Assay. In kind it is binding. The conditions noted are these: ratio of biochemical IC50 Bcl-2 G101V / Bcl-2 WT. The method, boiled down: (§1)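 TR-FRET read at excitation 337 nm with emission at 490 nm and 520 nm. Inhibition of Bcl-2-G101V binding to its ligand across increasing compound concentrations was calculated from the 490/520 nm fluorescence ratio, and IC50 values came from four-parameter logistic fits.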

The target of assay [4] is recombinant human Bcl-2-G101V protein (Homo sapiens (Human), UniProt P10415, G101V). The experiment in a line: Bcl-2-G101V TR-FRET Assay. In kind it is binding. As to conditions: Bcl-2 G101V mutant, TR-FRET; read-out: Biochemical assay (IC50, nM) Bcl-2 G101V. The method, boiled down:
as §1

Read-outs that look alike come from different tables or passages of the source.

Take `CC(C)c1ccccc1C1CN(c2ccccc2)CCN1C1CC2(CCN(c3ccc(C(=O)NS(=O)(=O)c4ccc(NC[C@H]5CC[C@](C)(O)CC5)c([N+](=O)[O-])c4)c(Oc4cnc5[nH]ccc5c4)c3)CC2)C1` (some centres unmarked) [Example 65, 2-((1H-pyrrolo[2,3-b]pyridin-5-yl)oxy)-N-((4-((((1r,4r)-4-hydroxy-4-methylcyclohexyl)methyl)amino)-3-nitrophenyl)sulfonyl)-4-(2-(2-(2-isopropylphenyl)-4-phenylpiperazin-1-yl)-7-azaspiro [3.5]nonan-7-yl)benzamide]: the IC50 in assay [1] (Homo sapiens, RS4-11, RS4;11 cells) was determined as 5.9 nM; in assay [2], 0.86 nM; in assay [4], 54 nM. Moreover, the “Ratio of Bcl-2 G101V/WT” value in assay [3] is 62.8.
For `CC(C)c1ccccc1C1CN(C(C)c2ccccc2)CCN1C1CC2(CCN(c3ccc(C(=O)NS(=O)(=O)c4ccc(NC[C@H]5CC[C@](C)(O)CC5)c([N+](=O)[O-])c4)c(Oc4cnc5[nH]ccc5c4)c3)CC2)C1` (single isomer, unassigned) [Example 24a, 2-((1H-pyrrolo[2,3-b]pyridin-5-yl)oxy)-N-((4-((((1r,4r)-4-hydroxy-4-methylcyclohexyl)methyl)amino)-3-nitrophenyl)sulfonyl)-4-(2-(2-(2-isopropylphenyl)-4-(1-phenylethyl)piperazin-1-yl)-7-azaspiro[3.5]nonan-7-yl)benzamide], the values for the IC50 in assay [1] (RS4;11 cells), in assay [2] and in assay [4] were 3.4 nM, 0.37 nM and 6.9 nM, respectively. Moreover, the “Ratio of Bcl-2 G101V/WT” value in assay [3] worked out at 18.6.
